{"source": "patent US20170022258A1", "about": "“PEPTIDES FOR USE IN THE TREATMENT OF IL-1 RELATED DISEASES AND CONDITIONS” (C4M PHARMACEUTICALS PTY LTD., priority 2011, published 2017)", "key": {"[1]": {"system": "IL-1α-induced IL-8 production by HT-29 cells", "assay": "IL-1α induced IL-8 production by HT-29 colonic epithelial cells", "assay_type": "cell-based, human", "settings": "10 ng/ml IL-1α", "experimental": "(§1) Human colon epithelial cell lines HT-29 and Caco2 obtained from the European Collection of Animal Cell Cultures (ECACC) were used in cell cultures. Cells were routinely cultured at 37° C. in an atmosphere of 5% CO2 in 80 cm^2 tissue culture flasks in McCoy's and DMEM medium, respectively, supplemented with penicillin (10 u/ml), streptomycin (10 μg/ml), fungizone (0.5 μg/ml), and 10% (v/v) FCS (referred to as complete medium) until confluent.\n(§2) Confluent monolayers were sub-cultured into 6-well plates for experimental protocols. Cells were grown in 6-well plates until confluent. Twenty-four hours prior to the experiment the confluent monolayers were washed and cultured in FCS-free McCoy's medium. Growth arrested cultures were then treated with fresh FCS-free medium and stimulated with vehicle controls or various doses of IL-1α added alone or in combination with other pro-inflammatory cytokines (TNF-α, IFN-γ) in the presence or absence of the peptide of sequence 4 or IL-1 ra, in a dose and time dependent manner.\n(§3) Supernatants were collected, centrifuged to remove cellular debris and stored at −70° C. until assayed for extracellular inflammatory mediators. Total RNA for RT-PCR was extracted as described above. Cell counting and viability was routinely checked at the beginning and the end of the experiment by phase microscopy and by trypan blue exclusion using representative wells. Mycoplasma tests were performed during the experimental protocol. Production of soluble mediators was assessed by commercially available ELISA in supernatants, RT-PCR in total RNA extractants and nitric oxide, as described in Kolios, G, et al. (1995). Br J Pharmacol, 116, 2866-2872, the contents of which are incorporated herein by reference.\nHT 29 and Caco2 colonic epithelial cell lines were stimulated with 10 ng/ml of IL-la in the presence of 100 or 500 ng/ml of the peptide of sequence 4."}, "[2]": {"assay": "Stability of peptide once dissolved in solution (1 month)", "assay_type": "physicochemical", "settings": "1 mg in 5 ml water, bicarbonate and benzyl alcohol (19, 4) or methanol (13, 14)", "experimental": "Each of the peptides having the sequences 13, 14, 19 and 4 were tested to determine their stability in a solution containing (preferred composition above) water, bicarbonate and either benzyl alcohol (peptide 19 and 4) or methanol (peptide 13 and 14). Each of the peptides were held for a period of 1 month at either 4° C. or at room temperature.\n1 mg of each peptide was added to the water, bicarbonate and either benzyl alcohol or methanol solution and the solution was gently agitated for 1 hour at room temperature before standing at either 4° C. or at room temperature for a period of 1 month."}, "[3]": {"assay": "Solubility of peptide under different solvent conditions", "assay_type": "physicochemical", "settings": "30 min room temperature", "experimental": "100 mg of each peptide was added to 100 ml total of water plus the solvents, and the solution was gently agitated for 30 min at room temperature."}, "cows": {"system": "cows", "assay": "Testing of peptide 4 in cows for treatment of mastitis", "assay_type": "in vivo, cow", "settings": "1 mg, IV", "experimental": "The peptides were prepared as compositions containing 1 mg of peptide dissolved in 5 ml of a solution comprising water, bicarbonate and either benzyl alcohol or methanol."}, "horses": {"system": "horses", "assay": "Equine case studies (inflammatory conditions)", "assay_type": "in vivo, horse", "experimental": "In these case studies, 13 different horses each suffering from different inflammatory conditions were treated with peptide 4, which was administered by injection in a composition containing the peptide dissolved in 5 ml of a solution comprising water, bicarbonate and either benzyl alcohol or methanol."}, "[4]": {"system": "IL-1α+IFN-γ induced IL-8 production by HT-29 cells", "assay": "IL-1α+IFN-γ induced IL-8 production by HT-29 cells", "assay_type": "cell-based, human", "experimental": "as §1, §2, §3\nStimulation of HT-29 cells with a combination of pro-inflammatory cytokines induces increased secretion of chemokines, including IL-8 (as described in Kolios, G, et al. (1999). Eur J Immunol, 29, 530-536 the contents of which are herein incorporated by reference). […]"}, "[5]": {"system": "IL-1 stimulation of IL-8 in human skin fibroblasts", "assay": "Inhibition of IL-1 induced IL-8 in human fibroblasts", "assay_type": "cell-based", "settings": "inhibition of IL-1 stimulation of IL-8 in human skin fibroblasts; average of three measurements and standard error; read-out: Binding (IC50 nM)"}, "[6]": {"system": "IL-1α-induced IL-8 production by Caco2 cells", "assay": "IL-1α induced IL-8 production by Caco2 colonic adenocarcinoma cells", "assay_type": "cell-based, human", "settings": "peptide 100 ng/ml, FIG. 2", "experimental": "as §1, §2\nSupernatants were collected, centrifuged to remove cellular debris and stored at −70° C. until assayed for extracellular inflammatory mediators. […] Production of soluble mediators was assessed by commercially available ELISA in supernatants, RT-PCR in total RNA extractants and nitric oxide, as described in Kolios, G, et al. (1995). […]"}}, "note": "Read-outs that look alike come from different tables or passages of the source. Non-standard residues stand in square brackets, D forms with d. Residues, ends and D or L forms follow the SMILES beside them."}
{"smiles": "CC(=O)N[C@H](CC(C)C)C(=O)N1CCC[C@@H]1C(=O)N[C@H](CC(C)C)C(=O)N[C@H](C)C(=O)N[C@H](Cc1ccc(O)cc1)C(=O)N1CCC[C@@H]1C(=O)N[C@H](CCC(N)=O)C(=O)N[C@H](Cc1c[nH]c2ccccc12)C(=O)N[C@H](Cc1ccc(O)cc1)C(=O)NCC(=O)N1CCC[C@@H]1C(=O)N[C@@H](C(=O)N[C@H](Cc1c[nH]c2ccccc12)C(=O)N[C@H](CCC(=O)O)C(=O)N[C@H](Cc1ccccc1)C(=O)O)[C@H](C)O", "note": "[SEQ ID NO. 4, Ac-LPLAYPQWYGPTWEF] (Ac-[dL][dP][dL][dA][dY][dP][dQ][dW][dY]G[dP][dT][dW][dE][dF]-OH; C-terminus assumed)", "values": [{"measurement": "IL-1α-induced IL-8 production", "setting": "[1]; peptide 500 ng/ml, IL-1α alone 67.455±0.125, n=6, p<0.01", "value": "40.705±2.56", "unit": "ng/ml per 106 cells"}, {"measurement": "Effect on IL-1α-induced IL-8 production", "setting": "[1]; peptide 100 or 500 ng/ml, FIG. 1", "value": "reduced IL-1α-induced IL-8 production in a concentration dependent manner"}, {"measurement": "Stability of peptide once dissolved in solution (at 1 month), 4° C. (month)", "setting": "[2]; 4° C.", "value": 100, "unit": "%"}, {"measurement": "Stability of peptide once dissolved in solution (at 1 month), Room Temp (month)", "setting": "[2]; room temperature", "value": 96, "unit": "%"}, {"measurement": "solubility at 30 min", "setting": "[3]; benzyl alcohol (0.1-1%) in water, benzyl alcohol (0.1-1%), 100 mg peptide in 100 ml, read-out: Solubility: Benzyl Alcohol", "value": "> 1000", "unit": "µg/mL"}, {"measurement": "solubility at 30 min", "setting": "[3]; hydrochloric acid (0.1-1%) in water, hydrochloric acid (0.1-1%), 100 mg peptide in 100 ml water plus solvent, read-out: Solubility: Acid", "value": "< 1000", "unit": "µg/mL"}, {"measurement": "solubility at 30 min", "setting": "[3]; sodium bicarbonate (0.1-1%) in water, sodium bicarbonate (0.1-1%), 100 mg peptide in 100 ml, read-out: Solubility: Base", "value": "< 1000", "unit": "µg/mL"}, {"measurement": "Duration", "setting": "cows", "value": 72, "unit": "h"}, {"measurement": "Effect", "setting": "cows", "value": "Pronounced"}, {"measurement": "Period without inflammation post-administration", "setting": "horses; Case 1", "value": "observed for 48 hours"}, {"measurement": "Period of minimal pain and no heat post-administration", "setting": "horses; Case 2", "value": 48, "unit": "hours post-"}, {"measurement": "Observations", "setting": "horses; Case 2: severe pain and heat in near fore hoof, 1 mg bolus intravenous", "value": "Minimal pain and no"}, {"measurement": "Observations", "setting": "horses; Case 3: years of mild laminitis, 1 mg bolus intravenous every 3rd day for three weeks, during period of treatment", "value": "Complete relief of all"}, {"measurement": "Time post-administration at which symptoms returned", "setting": "horses; Case 4", "value": "after 8 days. 10 days"}, {"measurement": "Observations", "setting": "horses; Case 4: near fore fetlock heat and pain, fluid build up in lower deep flexor tendon, 1 mg bolus intravenous, after 8 days", "value": "Fetlock completely"}, {"measurement": "Period with no pain or palpation", "setting": "horses; Case 5", "value": "observed for 14 days."}, {"measurement": "Period of complete pain relief and increased flexion", "setting": "horses; Case 6", "value": "observed for 6 days."}, {"measurement": "Observations", "setting": "horses; Case 6: four years of general knee joint pain, sodium hyaluranate (Synvisc) intra-articularly followed by 0.5 mg peptide 4", "value": "Complete pain relief"}, {"measurement": "Observations", "setting": "horses; Case 7: three years of general knee pain, sodium hyaluranate (Synvisc) intra-articularly followed by 0.5 mg peptide 4, no follow up treatment required", "value": "Complete pain relief"}, {"measurement": "Period of pronounced relief of symptoms", "setting": "horses; Case 8", "value": "over a 72 hour period."}, {"measurement": "Observations", "setting": "horses; Case 9: severe muscle/ligament tear between shoulder and rib cage, 1 mg bolus intravenous, within 24 hours", "value": "Symptoms reduced"}, {"measurement": "Observations", "setting": "horses; Case 10: chronic joint pain in both knees and fetlocks, sodium hyaluranate (Synvisc) intra-articularly followed by 0.5 mg peptide 4, within 24 hours post-treatment", "value": "Significant pain relief,"}, {"measurement": "Observations", "setting": "horses; Case 11: mild work-related shin soreness, 1 mg bolus intravenous every 3rd day for a week, after the second injection", "value": "Significant improvement"}, {"measurement": "Observations", "setting": "horses; Case 12: mild work-related shin soreness, 1 mg bolus intravenous, after 24 hours post-administration", "value": "Significant pain relief"}, {"measurement": "Observations", "setting": "horses; Case 13: severe pain from inflammation and fluid build-up at 18 month old tendon injury, 1 mg weekly bolus intravenous", "value": "Complete relief of pain,"}, {"measurement": "IL-1α+IFN-γ induced IL-8 production", "setting": "[4]; 10 ng/ml IL-1α+300 U IFN-γ, peptide 5 ng/ml, stimulated control 78.79±6.99, n=3", "value": "35.41±4.23", "unit": "ng/ml per 106 cells"}, {"measurement": "Effect on IL-1α+IFN-γ induced IL-8 production", "setting": "[4]; all concentrations used, 5 ng/ml-1 μg/ml, p<0.01, FIG. 3", "value": "inhibitory effect for all concentrations used"}, {"measurement": "IC50", "setting": "[5]", "value": 5.9, "unit": "nM"}, {"measurement": "Effect on IL-1α-induced IL-8 secretion", "setting": "[6]", "value": "significant decrease"}]}
